Measurements published in PubChem BioAssay AID330 (DTP/NCI, 2004).
Several values for one entry are separate records, joined by “and”; a condition that tells them apart may be missing. Equal values may be shown once. Inconclusive results and toxic doses are left out. The calls were made as follows: active = survival T/C of 150% or more; inactive = T/C below 125% in these data.

Tested on: P388 leukemia ip, CD2F1 mice, survival T/C
Test: NCI In Vivo Anticancer Drug Screen. Data for tumor model P388 Leukemia (intraperitoneal) in CD2F1 (CDF1) mice
Conditions: endpoint: median survival time, higher = longer survival
Method in brief: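 Mice carrying the transplanted tumor received test compound or vehicle. Survival was recorded in each group, and the value is the treated-group measurement divided by that of the vehicle-treated control group.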

[1] = dose: 60.0 mg/kg/injection, schedule: Q01DX005 (ip), vehicle: saline with Tween-80
[2] = dose: 120.0 mg/kg/injection, schedule: Q01DX005 (ip), vehicle: saline with Tween-80
[3] = dose: 50.0 mg/kg/injection, schedule: Q01DX005 (ip), vehicle: saline with Tween-80
[4] = dose: 100.0 mg/kg/injection, schedule: Q01DX005 (ip), vehicle: saline with Tween-80
[5] = dose: 200.0 mg/kg/injection, schedule: Q01DX005 (ip), vehicle: saline with Tween-80
[6] = dose: 50.0 mg/kg/injection, schedule: Q01DX009 (ip), vehicle: saline with Tween-80
[7] = dose: 100.0 mg/kg/injection, schedule: Q01DX009 (ip), vehicle: saline with Tween-80
[8] = dose: 200.0 mg/kg/injection, schedule: Q01DX009 (ip), vehicle: saline with Tween-80
[9] = dose: 6.25 mg/kg/injection, schedule: Q01DX009 (ip), vehicle: saline with Tween-80
[10] = dose: 12.5 mg/kg/injection, schedule: Q01DX009 (ip), vehicle: saline with Tween-80
[11] = dose: 25.0 mg/kg/injection, schedule: Q01DX009 (ip), vehicle: saline with Tween-80
[12] = dose: 50.0 mg/kg/injection, schedule: Q01DX009 (ip), vehicle: Klucel (hydroxypropylcellulose) (HPC)
[13] = dose: 100.0 mg/kg/injection, schedule: Q01DX009 (ip), vehicle: Klucel (hydroxypropylcellulose) (HPC)
[14] = dose: 200.0 mg/kg/injection, schedule: Q01DX009 (ip), vehicle: Klucel (hydroxypropylcellulose) (HPC)
[15] = dose: 100.0 mg/kg/injection, schedule: Q01DX001 (ip), vehicle: saline with Tween-80
[16] = dose: 200.0 mg/kg/injection, schedule: Q01DX001 (ip), vehicle: saline with Tween-80
[17] = dose: 50.0 mg/kg/injection, schedule: Q01DX005 (ip), vehicle: Klucel (hydroxypropylcellulose) (HPC)
[18] = dose: 100.0 mg/kg/injection, schedule: Q01DX005 (ip), vehicle: Klucel (hydroxypropylcellulose) (HPC)
[19] = dose: 200.0 mg/kg/injection, schedule: Q01DX005 (ip), vehicle: Klucel (hydroxypropylcellulose) (HPC)

Measured: T/C

CC(C)(O)/C=C/C(=O)C(C)(O)C1C(O)CC2(C)C3CC=C4C(CC(=O)C(O)C4(C)C)C3(C)C(=O)CC12C (stereo not drawn)
inactive: dose: 0.5 mg/kg/injection, schedule: Q01DX009 (ip), vehicle: saline + alcohol 119 % of control | dose: 1.0 mg/kg/injection, schedule: Q01DX009 (ip), vehicle: saline + alcohol 119 % of control | dose: 2.0 mg/kg/injection, schedule: Q01DX009 (ip), vehicle: saline + alcohol 121 % of control and 120 % of control

CN1c2ccccc2C(=O)N2C(=O)CCC21C (stereo not drawn)
inactive: [1] 102 % of control | [2] 88 % of control

CC(NNC(=S)NCc1ccccc1)c1cc2ccccc2cn1 (stereo not drawn)
inactive: [3] 106 % of control and 113 % of control | [4] 119 % of control
active: [5] 160 % of control

C[Si](C)(C)c1c[nH]c(=O)[nH]c1=O
inactive: [6] 102 % of control | [7] 98 % of control and 96 % of control | [8] 102 % of control

CC(=O)c1ccc(N=NN(C)c2ccc(C(C)=O)cc2)cc1
inactive: [6] 108 % of control | [7] 107 % of control | [8] 101 % of control

CC(/C=C/c1ccc2c(c1)OCO2)=N\NC(N)=S
inactive: dose: 3.13 mg/kg/injection, schedule: Q01DX005 (ip), vehicle: saline with Tween-80 104 % of control | dose: 6.25 mg/kg/injection, schedule: Q01DX005 (ip), vehicle: saline with Tween-80 112 % of control

COc1cc(/C=C/C(=O)CC(=O)/C=C/c2ccc(O)c(OC)c2)ccc1O
inactive: [9] 103 % of control | [10] 100 % of control | [11] 100 % of control | [6] 94 % of control

C=C(CCCCC)C(=O)/C=C/c1ccccc1
inactive: [12] 103 % of control | [13] 107 % of control | [14] 118 % of control

Cc1ccc(S(=O)(=O)OCCOCCOc2ccc3ccccc3c2-c2c(OCCOS(=O)(=O)c3ccc(C)cc3)ccc3ccccc23)cc1
inactive: [15] 89 % of control | [16] 100 % of control

CC(Nc1ccccc1)C(=Nc1ccccc1)Nc1ccccc1 (stereo not drawn)
inactive: [17] 110 % of control | [18] 113 % of control | [19] 113 % of control

O=C(O)C1CCC(=O)N1Cc1ccccc1 (stereo not drawn)
inactive: [12] 89 % of control | [13] 100 % of control | [14] 107 % of control

CSCCCNCc1ccccc1
inactive: dose: 50.0 mg/kg/injection, schedule: Q01DX005 (ip), vehicle: saline 100 % of control | dose: 100.0 mg/kg/injection, schedule: Q01DX005 (ip), vehicle: saline 106 % of control

COc1ccc2c(c1)OC(C)(C)C(c1ccccc1)C2c1ccc(OCCBr)c([N+](=O)[O-])c1 (stereo not drawn)
inactive: [17] 101 % of control | [18] 105 % of control | [19] 97 % of control

CSc1c2ccncc2c(C)c2c1[nH]c1ccccc12
inactive: dose: 6.25 mg/kg/injection, schedule: Q04DX002 (ip), vehicle: distilled water + Tween-80 95 % of control | dose: 12.5 mg/kg/injection, schedule: Q04DX002 (ip), vehicle: distilled water + Tween-80 94 % of control | dose: 25.0 mg/kg/injection, schedule: Q04DX002 (ip), vehicle: distilled water + Tween-80 88 % of control | dose: 50.0 mg/kg/injection, schedule: Q04DX002 (ip), vehicle: distilled water + Tween-80 89 % of control | dose: 100.0 mg/kg/injection, schedule: Q04DX002 (ip), vehicle: distilled water + Tween-80 95 % of control | dose: 200.0 mg/kg/injection, schedule: Q04DX002 (ip), vehicle: distilled water + Tween-80 98 % of control

Cc1nnc2n1-c1ccc(Cl)cc1C(c1ccccc1)=[N+]([O-])C2
inactive: [6] 103 % of control | [7] 104 % of control

CCN(CC)P(=O)(c1cccn1C)c1cccn1C
inactive: [6] 100 % of control | [7] 102 % of control | [8] 97 % of control

O=C1NC(=O)C(Cc2ccccc2)(Cc2ccccc2)C(=O)N1
inactive: [7] 90 % of control | dose: 100.0 mg/kg/injection, schedule: Q04DX003 (ip), vehicle: saline with Tween-80 110 % of control | [8] 95 % of control | dose: 200.0 mg/kg/injection, schedule: Q04DX003 (ip), vehicle: saline with Tween-80 100 % of control | dose: 400.0 mg/kg/injection, schedule: Q01DX009 (ip), vehicle: saline with Tween-80 95 % of control | dose: 400.0 mg/kg/injection, schedule: Q04DX003 (ip), vehicle: saline with Tween-80 110 % of control

Nc1ccccc1SC1=C(Cl)C(=O)c2ccccc2C1=O
inactive: [9] 95 % of control | [10] 94 % of control | [11] 103 % of control

O=C(O)c1nnc(C(=O)O)nn1
inactive: dose: 6.25 mg/kg/injection, schedule: Q01DX009 (ip), vehicle: water 98 % of control | dose: 12.5 mg/kg/injection, schedule: Q01DX009 (ip), vehicle: water 103 % of control | dose: 25.0 mg/kg/injection, schedule: Q01DX009 (ip), vehicle: water 102 % of control | dose: 50.0 mg/kg/injection, schedule: Q01DX009 (ip), vehicle: water 100 % of control | dose: 100.0 mg/kg/injection, schedule: Q01DX009 (ip), vehicle: water 90 % of control

O=[N+]([O-])c1cc([N+](=O)[O-])c2ccccc2c1NS(=O)(=O)c1ccc(Cl)c(Cl)c1Cl
inactive: [6] 103 % of control and 122 % of control | [7] 112 % of control | [8] 106 % of control

CC1=C(N2CC2)C(=O)c2ccccc2C1=O
inactive: [12] 93 % of control | [13] 90 % of control

Cc1ncc([N+](=O)[O-])n1CCOC(=O)c1ccc(Cl)cc1
inactive: [12] 102 % of control | [13] 100 % of control | [14] 98 % of control

CSC(=S)n1nc(-c2ccccc2)c(N=Nc2cccc(Cl)c2)c1-c1ccccc1
inactive: dose: 100.0 mg/kg/injection, schedule: Q04DX002 (ip), vehicle: saline with Tween-80 107 % of control | dose: 200.0 mg/kg/injection, schedule: Q04DX002 (ip), vehicle: saline with Tween-80 104 % of control | dose: 400.0 mg/kg/injection, schedule: Q04DX002 (ip), vehicle: saline with Tween-80 119 % of control

CC1c2c(cc(OC(=O)c3cccc(S(=O)(=O)F)c3)nc2OC(=O)c2cccc(S(=O)(=O)F)c2)C(=O)N1Cc1ccccc1 (stereo not drawn)
inactive: dose: 6.25 mg/kg/injection, schedule: Q01DX009 (ip), vehicle: Klucel (hydroxypropylcellulose) (HPC) 97 % of control | dose: 12.5 mg/kg/injection, schedule: Q01DX009 (ip), vehicle: Klucel (hydroxypropylcellulose) (HPC) 88 % of control | dose: 25.0 mg/kg/injection, schedule: Q01DX009 (ip), vehicle: Klucel (hydroxypropylcellulose) (HPC) 87 % of control

COC(=O)[C@@H]1CC/C(=C(\C#N)C(=O)OC(C)(C)C)N1
inactive: [1] 95 % of control | [2] 96 % of control | dose: 240.0 mg/kg/injection, schedule: Q01DX005 (ip), vehicle: saline with Tween-80 91 % of control

O=C1OC(=O)c2cc([N+](=O)[O-])cc3cccc1c23
inactive: [3] 108 % of control and 110 % of control (2×) | [4] 100 % of control and 103 % of control and 111 % of control | [5] 102 % of control and 110 % of control and 123 % of control | dose: 400.0 mg/kg/injection, schedule: Q01DX005 (ip), vehicle: saline with Tween-80 119 % of control

CCNc1nc(NC(C)C)nc(N2CCc3ccccc3C2)n1
inactive: [3] 106 % of control | [4] 117 % of control | [5] 110 % of control

Cc1cc(NC(=O)C(=O)CC(=O)c2ccc(Cl)c(Cl)c2)no1
inactive: [15] 101 % of control | [16] 108 % of control | dose: 400.0 mg/kg/injection, schedule: Q01DX001 (ip), vehicle: saline with Tween-80 97 % of control
